Among the test systems are UACC-62 melanoma; HCT-116 colon; NCI-H226 lung; IGROV1 ovarian; SK-MEL-2 melanoma; SN12C renal; SF-268 CNS; OVCAR-5 ovarian; HCT-15 colon; RXF 393 renal.
Test in all cases: inhibition of tumour cell growth, NCI panel, 48 h

In PubChem BioAssay (NCI) one finds TGI data, which are given here for 14 compounds.

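The compound was tested at five concentrations on cells cultured in 96-well plates, with a 48-hour exposure period. TGI marks complete inhibition of growth.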

As to `CC(=O)OC[C@H]1On2nnnc2[C@H](OC(C)=O)[C@@H](OC(C)=O)[C@@H]1OC(C)=O`, the TGI in the assay on UACC-62 melanoma, in the assay with HCT-116 colon, with NCI-H226 lung, in the assay on IGROV1 ovarian, in the assay on SK-MEL-2 melanoma and in the assay on SN12C renal was > 100 µM each time. Moreover, the TGI with SF-268 CNS, with OVCAR-5 ovarian, in the assay on HCT-15 colon and with RXF 393 renal was > 100 µM throughout.

With `CCOC(=O)C1=C(O)c2ccc(C)cc2C(=O)C1=O`, the TGI with UACC-62 melanoma, in the assay with HCT-116 colon, in the assay on NCI-H226 lung, with IGROV1 ovarian, in the assay with SK-MEL-2 melanoma and with SN12C renal was > 100 µM in each case. Further, the TGI in the assay with SF-268 CNS, in the assay with OVCAR-5 ovarian, in the assay on HCT-15 colon and in the assay with RXF 393 renal was > 100 µM throughout.

For `NCCSCCC(=O)O`, the TGI is > 70.9 µM with UACC-62 melanoma; > 100 µM in the assay with HCT-116 colon; > 100 µM with NCI-H226 lung; > 100 µM in the assay on IGROV1 ovarian; > 100 µM in the assay with SK-MEL-2 melanoma; > 100 µM in the assay with SN12C renal. Further, the TGI in the assay on SF-268 CNS, with OVCAR-5 ovarian, in the assay on HCT-15 colon and in the assay with RXF 393 renal was > 100 µM each time.

For `CC1(C)O[C@@H](C[C@]2(C#N)C[C@H](CCl)OC(C)(C)O2)C[C@@H](C#N)O1`, the TGI in the assay with UACC-62 melanoma, with HCT-116 colon, in the assay with NCI-H226 lung, with IGROV1 ovarian, with SK-MEL-2 melanoma and in the assay on SN12C renal was > 100 µM in each case. Moreover, the TGI with SF-268 CNS, in the assay on OVCAR-5 ovarian, in the assay on HCT-15 colon and in the assay on RXF 393 renal was > 100 µM each time.

As for `CCCCN(C)/N=N/c1nc[nH]c1C(N)=O`, the TGI in the assay on UACC-62 melanoma, with HCT-116 colon, in the assay on NCI-H226 lung, with IGROV1 ovarian, with SK-MEL-2 melanoma and with SN12C renal was > 100 µM each time. Further, the TGI in the assay with SF-268 CNS, in the assay on OVCAR-5 ovarian, in the assay on HCT-15 colon and in the assay on RXF 393 renal was > 100 µM throughout.

For `[N-]=[N+]=NCC(O)Cn1cnc2c(NC(=O)c3ccccc3)ncnc21` (stereo not given), the TGI in the assay on UACC-62 melanoma, with HCT-116 colon, in the assay with NCI-H226 lung, in the assay with IGROV1 ovarian, in the assay on SK-MEL-2 melanoma and in the assay with SN12C renal was > 100 µM throughout. Also, the TGI in the assay with SF-268 CNS, with OVCAR-5 ovarian, in the assay with HCT-15 colon and in the assay on RXF 393 renal was > 100 µM in each case.

As to `COC(=O)Nc1nc2ccc(NC(=O)c3ccc(I)cc3)cc2[nH]1`, the TGI with UACC-62 melanoma, with HCT-116 colon, in the assay with NCI-H226 lung, in the assay on IGROV1 ovarian, in the assay with SK-MEL-2 melanoma and in the assay on SN12C renal was > 100 µM each time. The TGI with SF-268 CNS, with OVCAR-5 ovarian, in the assay on HCT-15 colon and with RXF 393 renal was > 100 µM throughout.

For `O=c1[nH]nc(Cc2ccc(Cl)cc2)n1/N=C/c1ccc([N+](=O)[O-])o1`, the TGI is 9.09 µM in the assay with UACC-62 melanoma; 3.2 µM in the assay on HCT-116 colon; 43.3 µM in the assay with NCI-H226 lung; 11.2 µM in the assay on IGROV1 ovarian; 12.4 µM in the assay on SK-MEL-2 melanoma; > 100 µM in the assay on SN12C renal. For the same compound, the TGI in the assay with SF-268 CNS was 7.93 µM; in the assay on OVCAR-5 ovarian it was > 54.6 µM; with HCT-15 colon, 11.5 µM; in the assay with RXF 393 renal, 4.8 µM.

For the compound `Cc1ncc(COP(=O)(O)O)c(/C=C2\SC(=S)NC2=O)c1O`, the TGI with UACC-62 melanoma, in the assay with HCT-116 colon, with NCI-H226 lung, in the assay on IGROV1 ovarian, in the assay with SK-MEL-2 melanoma and with SN12C renal was > 100 µM each time. Also, the TGI with SF-268 CNS, in the assay on OVCAR-5 ovarian, in the assay on HCT-15 colon and in the assay on RXF 393 renal was > 100 µM in each case.

As for `COc1ccc(Oc2ccccc2N)cc1`, the TGI in the assay on UACC-62 melanoma, in the assay on HCT-116 colon, in the assay on NCI-H226 lung, in the assay with IGROV1 ovarian, in the assay with SK-MEL-2 melanoma and in the assay with SN12C renal was > 100 µM each time. The TGI in the assay with SF-268 CNS was > 100 µM; in the assay with OVCAR-5 ovarian, > 100 µM; with HCT-15 colon, > 100 µM; in the assay with RXF 393 renal it was 98.2 µM.

Regarding `CSc1cnc2ccccc2c1Sc1c[nH]c2ccccc2c1=O`, the TGI with UACC-62 melanoma was found to be 25.1 µM; in the assay with HCT-116 colon, 28.7 µM; with NCI-H226 lung it was 33 µM; with IGROV1 ovarian it was 43.1 µM; in the assay with SK-MEL-2 melanoma it was 34.6 µM; in the assay with SN12C renal it was 76.3 µM. The TGI was > 100 µM in the assay on SF-268 CNS, 59.4 µM in the assay on OVCAR-5 ovarian, > 80.8 µM in the assay with HCT-15 colon and 37.6 µM in the assay with RXF 393 renal.

Regarding `Cc1nc(Nc2ccccc2Cl)sc1C(=O)CC(=O)C(N)=O`, the TGI in the assay with UACC-62 melanoma, in the assay with HCT-116 colon, in the assay on NCI-H226 lung, with IGROV1 ovarian, in the assay on SK-MEL-2 melanoma and with SN12C renal was > 100 µM throughout. Further, the TGI in the assay with SF-268 CNS, in the assay on OVCAR-5 ovarian, with HCT-15 colon and in the assay with RXF 393 renal was > 100 µM in each case.

Regarding `CCOC(=O)c1cc(Br)c(-c2onc(C)c2Br)[nH]1`, the TGI in the assay on UACC-62 melanoma, with HCT-116 colon, with NCI-H226 lung, in the assay with IGROV1 ovarian, in the assay on SK-MEL-2 melanoma and in the assay on SN12C renal was > 100 µM throughout. The TGI with SF-268 CNS was > 100 µM; with OVCAR-5 ovarian, > 100 µM; in the assay with HCT-15 colon it was > 100 µM; with RXF 393 renal it was 38.7 µM.

Take `CC(C)Oc1cccc(N2C(Nc3ccccc3)=Nc3ccncc3S2(=O)=O)c1`: the TGI with UACC-62 melanoma is > 100 µM; with HCT-116 colon, > 100 µM; in the assay on NCI-H226 lung, 83.2 µM; in the assay with IGROV1 ovarian it was 87.6 µM; with SK-MEL-2 melanoma, > 100 µM; in the assay on SN12C renal, > 100 µM. The TGI with SF-268 CNS was > 100 µM; in the assay on OVCAR-5 ovarian, > 100 µM; in the assay on HCT-15 colon it was 75.5 µM; in the assay on RXF 393 renal it was 95.6 µM.
